These results are taken from paper PMC10196468, “Synthesis, in vitro biological assessment, and molecular docking study of benzimidazole-based thiadiazole derivatives as dual inhibitors of α-amylase and α-glucosidase” (Frontiers in Chemistry, 2023).

One may read the IC50 as the concentration that gives 50% inhibition.

The target in one test is α-glucosidase. Nature of the test: in vitro α-glucosidase inhibitory assay (p-nitrophenyl-D-glucopyranoside, 405 nm). In kind it is biochemical. The settings on record: triplicates; standard acarbose; read-out: α-Glucosidase IC50 (µM ±SEM). Here is the method: 10 µl of the α-glucosidase enzyme, 20 µl of test samples (10-50 µg/ml) and 50 µl, of 0.1M phosphate buffer (pH=6.8), were incubated at 37°C for 15 min in a 96-well plate. 20 µl of p-nitrophenyl—D-glucopyranoside solution was further added as a substrate and again incubated for 20 min at 37 °C. Sodium carbonate (50 µl of 0.1M) was added to terminate the reaction. P-nitrophenol was liberated, during the reaction which was measured at 405nm using an ELISA microplate reader. […] All the experiments were carried out in triplicates. The percentage inhibition was calculated by the formula.
% Inhibition = [(Ac – As) /Ac] × 100 Ac-absorbance for control, As-absorbance for standard.
Take `O=[N+]([O-])c1ccc(/C=N/c2nnc(-c3cccc4[nH]cnc34)s2)cc1` [Analog 5, (E)-N-(5-(1H-benzo[d]imidazol-4-yl)-1,3,4-thiadiazol-2-yl)-1-(4-nitrophenyl)methanimine]: the IC50 worked out at 5.7 ± 0.2 µM.
On to `O=[N+]([O-])c1ccccc1/C=N/c1nnc(-c2cccc3[nH]cnc23)s1` [Analog 4, (E)-N-(5-(1H-benzo[d]imidazol-4-yl)-1,3,4-thiadiazol-2-yl)-1-(2 nitrophenyl)methanimine], for which the IC50 was 7.4 ± 0.3 µM.
For `O=[N+]([O-])c1cc(Cl)ccc1/C=N/c1nnc(-c2cccc3[nH]cnc23)s1` [Analog 14, (E)-N-(5-(1H-benzo[d]imidazol-4-yl)-1,3,4-thiadiazol-2-yl)-1-(4-chloro-2-nitrophenyl)methanimine], the 50% inhibitory concentration (IC50) worked out at 9.3 ± 0.4 µM.
Turning to `Cc1ccc(/C=N/c2nnc(-c3cccc4[nH]cnc34)s2)cc1` [Analog 6, (E)-N-(5-(1H-benzo[d]imidazol-4-yl)-1,3,4-thiadiazol-2-yl)-1-(p-tolyl)methanimine], the IC50 is 15.3 ± 0.1 µM.
On to `Cc1ccccc1/C=N/c1nnc(-c2cccc3[nH]cnc23)s1` [Analog 7, (E)-N-(5-(1H-benzo[d]imidazol-4-yl)-1,3,4-thiadiazol-2-yl)-1-(o-tolyl)methanimine], for which the concentration for half-maximal inhibition (IC50) was 19.9 ± 0.1 µM.
In the case of “(E)-N-(5-(1H-benzo[d]imidazol-4-yl)-1,3,4-thiadiazol-2-yl)-1-(4-bromophenyl)methanimine [Analog 17]”, the concentration for half-maximal inhibition (IC50) is 2.3 ± 0.6 µM.
`O=[N+]([O-])c1cc(Br)ccc1/C=N/c1nnc(-c2cccc3[nH]cnc23)s1` [Analog 3, (E)-N-(5-(1H-benzo[d]imidazol-4-yl)-1,3,4-thiadiazol-2-yl)-1-(4-bromo-2-nitrophenyl)methanimine]: the IC50 was determined as 24.6 ± 0.2 µM.
Consider `Brc1ccc(/C=N/c2nnc(-c3cccc4[nH]cnc34)s2)cc1` [Analog 16, (E)-N-(5-(1H-benzo[d]imidazol-4-yl)-1,3,4-thiadiazol-2-yl)-1-(4-bromophenyl)methanimine], for which the 50% inhibitory concentration (IC50) was determined as 26.1 ± 0.1 µM.
Turning to `Oc1cc(F)ccc1/C=N/c1nnc(-c2cccc3[nH]cnc23)s1` [Analog 2, (E)-2-(((5-(1H-benzo[d]imidazol-4-yl)-1,3,4-thiadiazol-2-yl)imino)methyl)-5-fluorophenol], the IC50 was 2.1 ± 0.1 µM.
Take `Clc1cccc(/C=N/c2nnc(-c3cccc4[nH]cnc34)s2)c1Cl` [Analog 15, (E)-N-(5-(1H-benzo[d]imidazol-4-yl)-1,3,4-thiadiazol-2-yl)-1-(2,3-dichlorophenyl)methanimine]: the IC50 is 6.6 ± 0.1 µM.
For `Fc1ccc(/C=N/c2nnc(-c3cccc4[nH]cnc34)s2)cc1` [Analog 9, (E)-N-(5-(1H-benzo[d]imidazol-4-yl)-1,3,4-thiadiazol-2-yl)-1-(4-fluorophenyl)methanimine], the IC50 was determined as 3.9 ± 0.1 µM.
As to `Cc1cccc(/C=N/c2nnc(-c3cccc4[nH]cnc34)s2)c1` [Analog 8, (E)-N-(5-(1H-benzo[d]imidazol-4-yl)-1,3,4-thiadiazol-2-yl)-1-(m-tolyl)methanimine], the IC50 worked out at 21.6 ± 0.3 µM.
Regarding `COc1cccc(/C=N/c2nnc(-c3cccc4[nH]cnc34)s2)c1` [Analog 13, (E)-N-(5-(1H-benzo[d]imidazol-4-yl)-1,3,4-thiadiazol-2-yl)-1-(3-methoxyphenyl)methanimine], the IC50 turned out to be 17.2 ± 0.3 µM.
On the same count and under the same terms, with `COc1ccc(OC)c(/C=N/c2nnc(-c3cccc4[nH]cnc34)s2)c1` [Analog 10, (E)-N-(5-(1H-benzo[d]imidazol-4-yl)-1,3,4-thiadiazol-2-yl)-1-(2,5-dimethoxyphenyl)methanimine] the figure was 14.5 ± 0.5 µM; with `COc1ccccc1/C=N/c1nnc(-c2cccc3[nH]cnc23)s1` [Analog 12, (E)-N-(5-(1H-benzo[d]imidazol-4-yl)-1,3,4-thiadiazol-2-yl)-1-(2-methoxyphenyl)methanimine], 15.4 ± 0.3 µM; with `FC(F)(F)c1ccc(/C=N/c2nnc(-c3cccc4[nH]cnc34)s2)cc1` [Analog 1, (E)-N-(5-(1H-benzo[d]imidazol-4-yl)-1,3,4-thiadiazol-2-yl)-1-(4-(trifluoromethyl)phenyl)methanimine], 2.8 ± 0.2 µM.
Still for that read-out and setting: the figure for “(E)-N-(5-(1H-benzo[d]imidazol-4-yl)-1,3,4-thiadiazol-2-yl)-1-(3-fluorophenyl)methanimine [Analog 11]” is 4.7 ± 0.1 µM.

The next test has as its target T1, α-amylase (Sus scrofa, UniProt P00690).
T1 sequence (P00690 16-511): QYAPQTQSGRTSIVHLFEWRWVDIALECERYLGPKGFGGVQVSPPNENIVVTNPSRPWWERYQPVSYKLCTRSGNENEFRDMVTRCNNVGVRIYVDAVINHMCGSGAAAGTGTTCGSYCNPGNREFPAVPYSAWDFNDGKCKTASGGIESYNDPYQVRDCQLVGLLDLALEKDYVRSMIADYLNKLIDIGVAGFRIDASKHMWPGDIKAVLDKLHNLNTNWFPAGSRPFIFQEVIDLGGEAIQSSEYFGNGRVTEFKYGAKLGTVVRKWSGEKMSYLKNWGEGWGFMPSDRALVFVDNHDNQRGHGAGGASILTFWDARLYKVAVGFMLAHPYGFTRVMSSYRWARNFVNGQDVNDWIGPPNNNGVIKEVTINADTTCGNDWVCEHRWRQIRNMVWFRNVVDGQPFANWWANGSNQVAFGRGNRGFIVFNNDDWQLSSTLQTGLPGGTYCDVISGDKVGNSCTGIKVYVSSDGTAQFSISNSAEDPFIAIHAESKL
Nature of the test: in vitro α-amylase inhibitory assay (starch/DNS, absorbance 540 nm). Type of test: biochemical. The settings on record: triplicates; standard acarbose; read-out: α-Amylase IC50 (µM ±SEM). On the procedure: 20µL of α -amylase solution (0.5 mg/ml) was added to phosphate buffer (pH 6.9, 0.02 M, 200 µL). 250 μL of test samples (10-50 µg/mL) was added, to all the above solutions and kept for incubation for 10 min.1% starch solution (200µL) was further added and again kept for incubation for 10 min at a temperature of 25°C. Termination of the reaction was affected by the addition of 400 μL of 3, 5-dinitrosalicylic acid (DNS) reagent. Lastly, it was incubated in water (at 70°C, 5 min). The absorbance was recorded using an ELISA microplate reader at 540 nm. […] All the reactions were carried out in triplicates. The reaction mixture, devoid of the test sample, served as control. The following formula was employed to calculate percentage inhibition..
% Inhibition = [(Ac – As) /Ac] × 100 Ac-Control absorbance, As-Standard absorbance
Turning to “(E)-N-(5-(1H-benzo[d]imidazol-4-yl)-1,3,4-thiadiazol-2-yl)-1-(4-bromophenyl)methanimine [Analog 17]”, the IC50 stood at 2.16 ± 0.5 µM.
For “(E)-N-(5-(1H-benzo[d]imidazol-4-yl)-1,3,4-thiadiazol-2-yl)-1-(3-fluorophenyl)methanimine [Analog 11]”, the 50% inhibitory concentration (IC50) was determined as 3.18 ± 0.1 µM.
